We go through 9 compounds from patent US20190010158A1, “ANTITUMOR EFFECT POTENTIATOR COMPRISING PYRROLOPYRIMIDINE COMPOUND” (TAIHO PHARMACEUTICAL CO., LTD, priority 2015, published 2019).

SMILES strings stand for the structures.

Data set [1] concerns tumor cell line shown in Table 38. Briefly: Example 9: combined use with BCL-2 inhibitor, cell growth inhibition test (IC50 ratio, CI). The settings on record: MOLT-4; for CI: at ED50. In kind it is cell-based.
The subject of a further data set is U266B1. Briefly: Example 1: combined use with proteasome inhibitor, cell growth inhibition test (IC50 ratio, CI), U266B1. It counts as cell-based, human. As to conditions: for CI: at ED50.
The subject of data set [2] is Human multiple myeloma (MM) KMS-26 cell lines. Description: Example 16: tumor growth inhibition in mice, combinational treatment with bortezomib. As to conditions: KMS-26 in mice; 1 mg/kg/day, days 1, 4, 8, 11; day 15. It counts as in vivo. From the text:
(§1) The test ended on day 15.
A necessary amount of the test compound was weighed to prepare a solution to administer to the mice.
(§2) RTVn=TVn/TV1 (equation D)
(§3) BWCn (%)=(BWn−BW1)/BW1×100 (equation F)

The subject of data set [3] is tumor cell lines shown in Table 58. Briefly: Example 22: combined use with IAP antagonist, cell growth inhibition test (IC50 ratio, CI). In kind it is cell-based. The settings on record: HL-60; for CI: at ED50.
The subject of data set [4] is tumor cell line shown in Table 36. Description: Example 8: combined use with BTK inhibitor, cell growth inhibition test (IC50 ratio, CI). In kind it is cell-based. As to conditions: MV-4-11; for CI: at ED50.
Data set [5] deals with tumor cell line shown in Table 34. Briefly: Example 7: combined use with Exportin-1 inhibitor, cell growth inhibition test (IC50 ratio, CI). In kind it is cell-based. As to conditions: HCT116; for CI: at ED50.
The next data set addresses carbonic anhydrase II (Homo sapiens, UniProt P00918). As to conditions: background art, Non-patent Literature 8; cited from earlier work.
The conditions of data set [6]: background art, Non-patent Literature 7; decrease in plasma concentration; cited from earlier work.
The subject of data set [7] is tumor cell line shown in Table 28. Description: Example 4: combined use with PARP inhibitor, cell growth inhibition test (IC50 ratio, CI). In kind it is cell-based. The settings on record: A549; for CI: at ED50.
Data set [8] has as its system human acute myelogenous leukemia (AML) THP-1 cell lines. Briefly: Example 21: tumor growth inhibition in mice, combinational treatment with azacytidine. As to conditions: THP-1 in mice; intraperitoneally 20 mg/kg/day, days 1, 4, 8, 11, 15, 18; day 22. In kind it is in vivo.
From the text: as §2, §3
The test ended on day 22.

Data set [9] concerns tumor cell lines shown in Table 24. Description: Example 2: combined use with tyrosine kinase inhibitor, cell growth inhibition test (IC50 ratio, CI). It counts as cell-based. The settings on record: MOLT-4; for CI: at ED50.
Data set [10] concerns human acute myelogenous leukemia (AML) MV-4-11 cell lines. Briefly: Example 17: tumor growth inhibition in mice, combinational treatment with gilteritinib. It counts as in vivo. As to conditions: MV-4-11 in mice; orally 3 mg/kg/day, days 1-14; day 15.
From the text: as §2, §3, §1

[11] abbreviates: IC50 of Reference Example Compound 55 : IC50 of other compound = 1:value.
The mark [12] stands for this setting: Reference Example Compound 55:other compound 1:60.
The mark [13] stands for this setting: combined use with Reference Example Compound 55.

`CC1(C)CCC(CN2CCN(c3ccc(C(=O)NS(=O)(=O)c4ccc(NCC5CCOCC5)c([N+](=O)[O-])c4)c(Oc4cnc5[nH]ccc5c4)c3)CC2)=C(c2ccc(Cl)cc2)C1` [ABT-199]: the “IC50 Ratio” value in data set [1] (setting [11]) turned out to be 119. For the same compound, the CI in data set [1] (setting [12]) was 0.37; in data set [1] (Reference Example Compound 55:other compound 1:180), 0.40. In addition, the “Comprehensive Evaluation” value in [1] (setting [13]) is listed as “Synergism (0.3-0.7)”.

In the case of `CC(C)C[C@H](NC(=O)[C@H](Cc1ccccc1)NC(=O)c1cnccn1)B(O)O` [Bortezomib, bortezomib], the “IC50 Ratio” value with U266B1 (setting [11]) was found to be 0.05. In addition, the CI with U266B1 (Reference Example Compound 55:other compound 1:0.02) is recorded as 0.56. In the data set with U266B1 (Reference Example Compound 55:other compound 1:0.07), the CI was determined as 0.51. Also, the “Comprehensive Evaluation” value in the data set with U266B1 (setting [13]) is “Synergism (0.3-0.7)”. In data set [2], the “BWC15 (%) Mean ± SD” value is 1.3 ± 3.2%, the “RTV15 Mean ± SD” value turned out to be 6.9 ± 3.2 and the “T/C15 (%)” value worked out at 66%.

With `CN[C@@H](C)C(=O)N[C@H](C(=O)N1CCC[C@H]1C(=O)Nc1snnc1-c1ccccc1)C1CCCCC1` [GDC-0152], in data set [3] (setting [11]), the “IC50 Ratio” value was 2122. Also, the CI in data set [3] (Reference Example Compound 55:other compound 1:90) was 0.45; in data set [3] (Reference Example Compound 55:other compound 1:270), 0.62. Further, the “Comprehensive Evaluation” value in data set [3] (setting [13]) was “Synergism (0.3-0.7)”.

With `C=CC(=O)N1CCC[C@@H](n2nc(-c3ccc(Oc4ccccc4)cc3)c3c(N)ncnc32)C1` [Ibrutinib, ibrutinib], the “IC50 Ratio” value in [4] (setting [11]) was 140. For the same compound, the figures for the CI in [4] (Reference Example Compound 55:other compound 1:111) and in data set [4] (Reference Example Compound 55:other compound 1:333) were 0.70 and 0.72, respectively.

On to `O=C(/C=C\n1cnc(-c2cc(C(F)(F)F)cc(C(F)(F)F)c2)n1)NNc1cnccn1` [KPT-330], for which, in data set [5] (setting [11]), the “IC50 Ratio” value was 21. Further, the CI in data set [5] (Reference Example Compound 55:other compound 1:11) amounted to 0.69; in data set [5] (Reference Example Compound 55:other compound 1:33) it was 0.75. Moreover, the “Comprehensive Evaluation” value in data set [5] (setting [13]) is “Moderate”.

Consider `NS(=O)(=O)OC[C@@H]1C[C@@H](n2ccc3c(N[C@H]4CCc5ccccc54)ncnc32)C[C@@H]1O` [MLN4924, N-[(1S)-1-indanyl]-7-[(1R)-3α-hydroxy-4α-(sulfamoyloxymethyl)cyclopentyl]-7H-pyrrolo[2,3-d]pyrimidin-4-amine], for which, at carbonic anhydrase II, the “inhibition of carbonic anhydrase II activity” value is “inhibits the activity”. Moreover, the “transfer of administered drug to red blood cells in the blood” value in data set [6] is “transferred to red blood cells”.

On to `O=C(c1cc(Cc2n[nH]c(=O)c3ccccc23)ccc1F)N1CCN(C(=O)C2CC2)CC1` [Olaparib, olaparib], for which the “IC50 Ratio” value in data set [7] (setting [11]) is on record as 21. Further, the CI is given as 0.61 in data set [7] (Reference Example Compound 55:other compound 1:10) and 0.69 in [7] (Reference Example Compound 55:other compound 1:30). Further, the “Comprehensive Evaluation” value in data set [7] (setting [13]) was “Synergism (0.3-0.7)”.

As for `Nc1ncn([C@@H]2O[C@H](CO)[C@@H](O)[C@H]2O)c(=O)n1` [azacytidine], in data set [8], the “BWC22 (%) Mean ± SD” value was 3.6 ± 4.5%, the “RTV22 Mean ± SD” value came to 8.8 ± 2.0 and the “T/C22 (%)” value is 45%.

As to `CCc1nc(C(N)=O)c(Nc2ccc(N3CCC(N4CCN(C)CC4)CC3)c(OC)c2)nc1NC1CCOCC1` [gilteritinib], the CI in data set [9] (Reference Example Compound 55:other compound 1:20) worked out at 0.96. For the same compound, the CI in data set [9] (setting [12]) stood at 0.88. The “Comprehensive Evaluation” value in data set [9] (setting [13]) is recorded as “Additive (0.9-1.10)”. In [10], the “BWC15 (%) Mean ± SD” value was determined as 5.8 ± 3.0%, the “RTV15 Mean ± SD” value amounted to 1.9 ± 0.5 and the “T/C15 (%)” value is on record as 41%.
